Where two headings read alike, the source gives them in different places.
Target: P. falciparum apicoplast DNA polymerase (Pf-apPOL) (Plasmodium falciparum, UniProt Q8ILY1)
Experiment: Fluorescence-based high-throughput DNA polymerase assay (molecular beacon), primary screen and dose-response;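 for % inhibition ApPOL 90': test concentration in µM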;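 for % inhibition Apol 40': compound concentration given in µM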;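 for % inhibition apPOL 180': test concentration in µM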
Format: biochemical
Conditions: for DNA Pol: 90 min, 10 µM
Procedure, shortened: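 Single-point screening used 10 µM compound with 20 nM polymerase, 20 nM hairpin substrate and 6 µM dNTPs for 90 min at 25 °C. Confirmatory titrations (2.5–80 µM) followed fluorescence at three times, and IC50 was derived from a fit including a cooperativity term n.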

[1] = 'DNA Pol' of the 186 hits list (primary screen value)
[2] = read-out: IC50 Pf-apPOL, Table 2
[3] = supplemental file 2, sheet IC50 nontoxic compounds, Pf-apPOL

Sequence of P. falciparum apicoplast DNA polymerase (Pf-apPOL) (Q8ILY1 entry or part of it): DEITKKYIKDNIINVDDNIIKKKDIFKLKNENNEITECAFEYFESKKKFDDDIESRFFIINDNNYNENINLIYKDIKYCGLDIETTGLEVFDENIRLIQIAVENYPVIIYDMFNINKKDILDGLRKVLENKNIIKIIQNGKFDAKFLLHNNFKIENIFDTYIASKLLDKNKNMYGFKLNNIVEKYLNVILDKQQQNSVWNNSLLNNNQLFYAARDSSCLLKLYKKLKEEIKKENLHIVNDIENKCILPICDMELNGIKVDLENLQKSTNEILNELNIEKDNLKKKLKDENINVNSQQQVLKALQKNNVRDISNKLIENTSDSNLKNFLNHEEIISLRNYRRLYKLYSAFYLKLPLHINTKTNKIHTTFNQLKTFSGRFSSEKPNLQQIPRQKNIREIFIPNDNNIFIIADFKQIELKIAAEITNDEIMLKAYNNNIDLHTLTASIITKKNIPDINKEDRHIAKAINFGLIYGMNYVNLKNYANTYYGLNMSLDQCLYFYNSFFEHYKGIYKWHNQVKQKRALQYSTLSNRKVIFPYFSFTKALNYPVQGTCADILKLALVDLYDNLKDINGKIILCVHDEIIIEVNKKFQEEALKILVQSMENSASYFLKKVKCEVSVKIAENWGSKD

## O=C1c2ccccc2C(=O)N1Oc1ccc([N+](=O)[O-])c([N+](=O)[O-])c1 [Molecule 66, O=N(=O)c1cc(ccc1N(=O)=O)ON1C(=O)c2c(C1=O)cccc2]
[1]
  DNA Pol: 72
DNA Pol (primary screen value)
  DNA Pol: 72
DRC-1, concentration 2.5
  % inhibition Apo pol 10': 7.12%
  % inhibition Apol 90': 2.278%
  % inhibition apPOL 180': -1.453%
DRC-1, concentration 5
  % inhibition Apo pol 10': 12.8299%
  % inhibition Apol 90': 9.738%
  % inhibition apPOL 180': 3.779%
DRC-1, concentration 10
  % inhibition Apo pol 10': 14.545%
  % inhibition Apol 90': 13.1271%
  % inhibition apPOL 180': 7.291%
DRC-1, concentration 20
  % inhibition Apo pol 10': 24.992%
  % inhibition Apol 90': 22.9091%
  % inhibition apPOL 180': 17.0641%
DRC-1, concentration 40
  % inhibition Apo pol 10': 53.6709%
  % inhibition Apol 90': 49.4397%
  % inhibition apPOL 180': 43.6341%
DRC-1, concentration 80
  % inhibition Apo pol 10': 72.2964%
  % inhibition Apol 90': 69.1434%
  % inhibition apPOL 180': 66.4384%
DRC-2, concentration 2.5
  % inhibition Apo pol 5': 1.26%
  % inhibition Apol 40': 6.34%
  % inhibition ApPOL 90': 5%
  % inhibition apPOL 180': 3%
DRC-2, concentration 5
  % inhibition Apo pol 5': 6%
  % inhibition Apol 40': 11%
  % inhibition ApPOL 90': 9.49%
  % inhibition apPOL 180': 5.62%
DRC-2, concentration 10
  % inhibition Apo pol 5': 12%
  % inhibition Apol 40': 18%
  % inhibition ApPOL 90': 17%
  % inhibition apPOL 180': 13%
DRC-2, concentration 20
  % inhibition Apo pol 5': 27%
  % inhibition Apol 40': 35%
  % inhibition ApPOL 90': 36%
  % inhibition apPOL 180': 32%
DRC-2, concentration 40
  % inhibition Apo pol 5': 40%
  % inhibition Apol 40': 48%
  % inhibition ApPOL 90': 50%
  % inhibition apPOL 180': 48%
DRC-2, concentration 80
  % inhibition Apo pol 5': 51%
  % inhibition Apol 40': 62%
  % inhibition ApPOL 90': 66%
  % inhibition apPOL 180': 68%

## CCOc1nc2cccc(C(=O)OC(C)OC(=O)OC3CCCCC3)c2n1Cc1ccc(-c2ccccc2-c2nnn[nH]2)cc1 (stereo not shown) [Molecule 94]
[2]
  IC50: 7.6 ± 0.6 µM
[3]
  IC50: 7.66 µM

## COc1ccc(CNC(=O)Cn2nc3c(c2NC(=O)Cc2cccs2)CSC3)cc1 [Molecule 55]
[2]
  IC50: 10 ± 2 µM
[3]
  IC50: 10.5 µM

## O=[N+]([O-])c1ccc(/C=C/c2ccc3ccccc3n2)o1 [Molecule 21, O=N(=O)c1ccc(o1)/C=C/c1ccc2c(n1)cccc2]
"DNA Pol" of the 186 hits list (screen value)
  DNA Pol: 59
DRC-1, concentration 2.5
  % inhibition Apo pol 10': 21.0135%
  % inhibition Apol 90': 13.3257%
  % inhibition apPOL 180': 4.404%
DRC-1, concentration 5
  % inhibition Apo pol 10': 49.9982%
  % inhibition Apol 90': 34.694%
  % inhibition apPOL 180': 20.9702%
DRC-1, concentration 10
  % inhibition Apo pol 10': 70.3482%
  % inhibition Apol 90': 59.8691%
  % inhibition apPOL 180': 46.0127%
DRC-1, concentration 20
  % inhibition Apo pol 10': 76.4404%
  % inhibition Apol 90': 78.6772%
  % inhibition apPOL 180': 74.6169%
DRC-1, concentration 40
  % inhibition Apo pol 10': 64.8126%
  % inhibition Apol 90': 78.7593%
  % inhibition apPOL 180': 82.0338%
DRC-1, concentration 80
  % inhibition Apo pol 10': 40.0961%
  % inhibition Apol 90': 64.7186%
  % inhibition apPOL 180': 72.6505%
DRC-2, concentration 2.5
  % inhibition Apo pol 5': 37%
  % inhibition Apol 40': 44%
  % inhibition ApPOL 90': 41%
  % inhibition apPOL 180': 29%
DRC-2, concentration 5
  % inhibition Apo pol 5': 38%
  % inhibition Apol 40': 51%
  % inhibition ApPOL 90': 50%
  % inhibition apPOL 180': 39%
DRC-2, concentration 10
  % inhibition Apo pol 5': 41%
  % inhibition Apol 40': 63%
  % inhibition ApPOL 90': 65%
  % inhibition apPOL 180': 61%
DRC-2, concentration 20
  % inhibition Apo pol 5': 27%
  % inhibition Apol 40': 61%
  % inhibition ApPOL 90': 67%
  % inhibition apPOL 180': 71%
DRC-2, concentration 40
  % inhibition Apo pol 5': 16%
  % inhibition Apol 40': 54%
  % inhibition ApPOL 90': 62%
  % inhibition apPOL 180': 69%
DRC-2, concentration 80
  % inhibition Apo pol 5': -66%
  % inhibition Apol 40': 10%
  % inhibition ApPOL 90': 30%
  % inhibition apPOL 180': 50%
Primary screen value, DNA Pol
  DNA Pol: 59

## CC(C)(C)OC(=O)COc1ccc2cc(-c3ccccc3)c(=O)oc2c1 [Molecule 81, O=C(OC(C)(C)C)COc1ccc2c(c1)oc(=O)c(c2)c1ccccc1]
[1]
  DNA Pol: 44
DNA Pol (primary screen value)
  DNA Pol: 44
DRC-1, concentration 2.5
  % inhibition Apo pol 10': -2.0657%
  % inhibition Apol 90': 2.03%
  % inhibition apPOL 180': 5.717%
DRC-1, concentration 5
  % inhibition Apo pol 10': -5.666%
  % inhibition Apol 90': 3.443%
  % inhibition apPOL 180': 14.8656%
DRC-1, concentration 10
  % inhibition Apo pol 10': 3.988%
  % inhibition Apol 90': 16.0875%
  % inhibition apPOL 180': 30.2199%
DRC-1, concentration 20
  % inhibition Apo pol 10': 8.332%
  % inhibition Apol 90': 22.5271%
  % inhibition apPOL 180': 41.9896%
DRC-1, concentration 40
  % inhibition Apo pol 10': 16.7579%
  % inhibition Apol 90': 30.9519%
  % inhibition apPOL 180': 50.3603%
DRC-1, concentration 80
  % inhibition Apo pol 10': 23.4286%
  % inhibition Apol 90': 41.1721%
  % inhibition apPOL 180': 64.7026%
DRC-2, concentration 2.5
  % inhibition Apo pol 5': 8%
  % inhibition Apol 40': 5.4%
  % inhibition ApPOL 90': 3.57%
  % inhibition apPOL 180': -1.44%
DRC-2, concentration 5
  % inhibition Apo pol 5': 10%
  % inhibition Apol 40': -3%
  % inhibition ApPOL 90': -14%
  % inhibition apPOL 180': -93%
DRC-2, concentration 10
  % inhibition Apo pol 5': 23%
  % inhibition Apol 40': 19%
  % inhibition ApPOL 90': 13%
  % inhibition apPOL 180': 1.59%
DRC-2, concentration 20
  % inhibition Apo pol 5': 28%
  % inhibition Apol 40': 25%
  % inhibition ApPOL 90': 18%
  % inhibition apPOL 180': 2.69%
DRC-2, concentration 40
  % inhibition Apo pol 5': 36%
  % inhibition Apol 40': 33%
  % inhibition ApPOL 90': 27%
  % inhibition apPOL 180': 13%
DRC-2, concentration 80
  % inhibition Apo pol 5': 44%
  % inhibition Apol 40': 44%
  % inhibition ApPOL 90': 38%
  % inhibition apPOL 180': 23%
